The structures appear in SMILES notation. Several values for one entry are separate records, joined by “and”; a condition that tells them apart may be missing. Equal values may be shown once. Read-outs that look alike come from different tables or passages of the source. A value given as a limit tells only on which side of the number the result lay.

Assay [1] has as its system C. difficile spores (ATCC #43596). The assay is described as follows: Hamster C. difficile infection (CDAD) protection model. Type of assay: in vivo, Syrian golden hamsters. The note with it: oral 0.5 mg/kg once daily for 5 days (MET 70 mg/kg three times daily for 5 days). The procedure:
Syrian golden hamsters were pretreated with 10 mg/kg clindamycin subcutaneously 24 hours before bacterial challenge. An inoculum of 20 C. difficile spores (ATCC #43596) in sterile saline was administered orally. Treatment was initiated 4 hours post-inoculation with dH2O, metronidazole (MET), vancomycin (VAN), or a compound of the present invention. Oral dosing regimens for VAN and compounds of Formula I were 0.5 mg/kg once daily for 5 days. MET was administered at 70 mg/kg three times daily for 5 days. CDAD was confirmed as the cause of death by observations at necropsy, including wet tail and/or macroscopic cecal alterations. The % protection provided by each therapy tested was calculated at 1 and 21 days post-dosing.

For another assay, the system named is gram positive bacteria. Briefly: Antimicrobial activity against a panel of organisms, summary statements. To be noted: statement in words. Type of assay: cell-based. The procedure: (§1) Compounds according to Formula I were tested for antimicrobial activity against a panel of organisms. Aerobic organisms, Staphylococcus aureus, Enterococcus faecalis and E. faecium, were tested by broth microdilution according to Clinical and Laboratory Standards Institute (CLSI) document M7-A7 (Clinical and Laboratory Standards Institute. Methods for Dilution Antimicrobial Susceptibility Tests for Bacteria that Grow Aerobically; Approved Standard—Seventh Edition. CLSI document M7-A7 [ISBN 1-56238-587-9]. Clinical and Laboratory Standards Institute, 940 West Valley Road, Suite 1400, Wayne, Pa. 19087-1898 USA, 2006) with modifications as described below. Mueller Hinton Broth (MHBc) was supplemented with 50 mg/L calcium (equivalent to human physiological levels of calcium) and assay plates were incubated 18-20 hours at 37° C. with aeration (200 rpm).
(§2) In all cases the final concentration of dimethyl sulfoxide incubated with cells is less than or equal to 1%. For minimum inhibitory concentration (MIC) calculations, 2-fold dilutions of compounds were added to wells of a microtiter plate containing 5×10^5 bacteria in a final volume of 100 μL of media. Following incubation, (18-20 hours at 37° C. with aeration at 200 rpm) growth was confirmed visually by placing plates over a viewing apparatus (stand with a mirror underneath) and then the optical density (OD600) was measured using a SpectraMax 340PC^384 plate reader. Growth was defined as turbidity that could be detected with the naked eye or achieving minimum OD600of 0.1. MIC values (in μg/mL) were defined as the lowest concentration producing no visible turbidity.

Assay [2] has as its system daptomycin resistant Staph. aureus (DRSA), daptomycin resistant E. faecium (DREfm) and daptomycin resistance E. faecalis (DREfs). The assay is described as follows: Activity against daptomycin resistant bacteria, summary statement. The note with it: statement in words. Type of assay: cell-based. The method, then:
as §1, §2

Assay [3] relates to Enterococcus faecalis EFS.201 (ATCC 49452). Type of assay: cell-based. In short, it runs like this: (§3)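 Broth microdilution per CLSI M7-A7 in Mueller Hinton broth supplemented with 50 mg/L calcium; 2-fold compound dilutions, 5×10^5 bacteria per well, DMSO ≤1% final, 18-20 h at 37° C with aeration (200 rpm). MIC (μg/mL) = lowest concentration with no visible turbidity (growth: visible turbidity or OD600 ≥0.1).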

Assay [4] deals with Enterococcus faecalis EFS.312, Daptomycin resistant mutant (EFA). The class given is cell-based. To be noted: MHBc with 50 mg/L calcium, 18-20 hours at 37° C. Summed up: as §3
In assay [5] the test system is Enterococcus faecium EFM.14 (ATCC 6569). The class given is cell-based. In short, it runs like this: as §3
Assay [6] deals with Enterococcus faecium EFM.384, Daptomycin resistant mutant (14-A). Type of assay: cell-based. The note with it: MHBc with 50 mg/L calcium, 18-20 hours at 37° C. In short, it runs like this: as §3
Assay [7] concerns Staphylococcus aureus SAU.278, Daptomycin resistant mutant (D10). Type of assay: cell-based. To be noted: MHBc with 50 mg/L calcium, 18-20 hours at 37° C. In short, it runs like this: as §3
The subject of assay [8] is Staphylococcus aureus SAU.399 (ATCC 43300), Methicillin and Oxacillin Resistant. The class given is cell-based. In short, it runs like this:
as §3

Assay [9] relates to Staphylococcus aureus SAU.42 (ATCC 29213). Type of assay: cell-based. To be noted: MHBc with 50 mg/L calcium, 18-20 hours at 37° C. In short, it runs like this: as §3
Where [10] appears, read: MHBc with 50 mg/L calcium, 18-20 hours at 37° C.

Take `CCCCCCC1CCC(c2ccc(C(=O)N[C@@H](Cc3c[nH]c4ccccc34)C(=O)N[C@H](CC(N)=O)C(=O)N[C@@H](CC(=O)O)C(=O)N[C@@H]3C(=O)NCC(=O)N[C@@H](CCCN)C(=O)N[C@@H](CC(=O)O)C(=O)N[C@H](C)C(=O)N[C@@H](CC(=O)O)C(=O)NCC(=O)N[C@H](CO)C(=O)N[C@@H]([C@H](C)CC(=O)O)C(=O)N[C@@H](CC(=O)c4ccccc4N)C(=O)O[C@@H]3C)cc2)CC1` (stereo partly drawn) [Compound 54, N-[4-(−4-hexylcyclohexyl)benzoyl]-L-tryptophyl-D-asparaginyl-L-α-aspartyl-L-threonylglycyl-L-ornithyl-L-α-aspartyl-D-alanyl-L-α-aspartylglycyl-D-seryl-(3R)-3-methyl-L-α-glutamyl-(αS)-α,2-diamino-γ-oxobenzenebutanoic acid (13→4)-lactone]: in assay [1] (1 day post-dosing), the “Mean % Protection 1 Day Post Dosing” value amounted to 0%. In addition, in assay [1] (21 days post-dosing), the “Mean % Protection 21 Days Post Dosing” value is 0%. In the assay on gram positive bacteria, the “as active or more active than daptomycin” value is recorded as “as active or more active than daptomycin” and the “more active against bacteria than daptomycin” value is listed as “more effective than daptomycin”. Also, the “useful against daptomycin resistant strains of bacteria” value (shortened to “useful”) in assay [2] is “useful against daptomycin resistant strains of bacteria”.

On to `CCCCCCCCCCOc1ccc(C(=O)N[C@@H](Cc2c[nH]c3ccccc23)C(=O)N[C@H](CC(N)=O)C(=O)N[C@@H](CC(=O)O)C(=O)N[C@@H]2C(=O)NCC(=O)N[C@@H](CCCN)C(=O)N[C@@H](CC(=O)O)C(=O)N[C@H](C)C(=O)N[C@@H](CC(=O)O)C(=O)NCC(=O)N[C@H](CO)C(=O)N[C@@H]([C@H](C)CC(=O)O)C(=O)N[C@@H](CC(=O)c3ccccc3N)C(=O)O[C@@H]2C)cc1` [Compound 38], for which the “Efs201 MIC” value in assay [3] (setting [10]) was 0.5 µg/mL. For the same molecule, in [4], the “Efs312 MIC” value came to 0.5 µg/mL. The “Efm14 MIC” value in [5] (setting [10]) amounted to 0.5 µg/mL. For the same molecule, in assay [6], the “Efm384 MIC” value was determined as 1 µg/mL. The “Sa278 MIC” value in assay [7] came to 0.50 µg/mL. The “Sa399 MIC” value in [8] (setting [10]) came to 0.5 µg/mL. For the same molecule, the “Sa42 MIC” value in assay [9] is 0.25 µg/mL. In the assay on gram positive bacteria, the “as active or more active than daptomycin” value is on record as “as active or more active than daptomycin” and the “more active against bacteria than daptomycin” value is given as “more effective than daptomycin”. In addition, in assay [2], the “useful” value was “useful against daptomycin resistant strains of bacteria”. Also, the “C. diff MIC90” value in the assay with Clostridium difficile worked out at 1 µg/mL.

On to `CCCCc1ccc(/C(C)=C/C(=O)N[C@@H](Cc2c[nH]c3ccccc23)C(=O)N[C@H](CC(N)=O)C(=O)N[C@@H](CC(=O)O)C(=O)N[C@@H]2C(=O)NCC(=O)N[C@@H](CCCN)C(=O)N[C@@H](CC(=O)O)C(=O)N[C@H](C)C(=O)N[C@@H](CC(=O)O)C(=O)NCC(=O)N[C@H](CO)C(=O)N[C@@H]([C@H](C)CC(=O)O)C(=O)N[C@@H](CC(=O)c3ccccc3N)C(=O)O[C@@H]2C)cc1` [Compound 48, N-{1-[(E)-3-(4-butylphenyl)but-2-enoyl]}-L-tryptophyl-D-asparaginyl-L-α-aspartyl-L-threonylglycyl-L-ornithyl-L-α-aspartyl-D-alanyl-L-α-aspartylglycyl-D-seryl-(3R)-3-methyl-L-α-glutamyl-(αS)-α,2-diamino-γ-oxobenzenebutanoic acid (13→4)-lactone], for which the “Efs201 MIC” value in assay [3] (ATCC 49452) turned out to be 1 µg/mL. In addition, the “Efs312 MIC” value in assay [4] is >32 µg/mL and 32 µg/mL. Moreover, the “Efm14 MIC” value in [5] (ATCC 6569) stood at 2 µg/mL. The “Efm384 MIC” value in assay [6] was determined as 32 µg/mL. The “Sa278 MIC” value in [7] was 2 µg/mL and 4 µg/mL. Also, the “as active or more active than daptomycin” value with gram positive bacteria is on record as “as active or more active than daptomycin”. The “useful” value in [2] was “useful against daptomycin resistant strains of bacteria”. In the assay on Clostridium difficile, the “C. diff MIC90” value worked out at 2 µg/mL.

As to `CCCCCCc1ccc(/C(C)=C/C(=O)N[C@@H](Cc2c[nH]c3ccccc23)C(=O)N[C@H](CC(N)=O)C(=O)N[C@@H](CC(=O)O)C(=O)N[C@@H]2C(=O)NCC(=O)N[C@@H](CCCN)C(=O)N[C@@H](CC(=O)O)C(=O)N[C@H](C)C(=O)N[C@@H](CC(=O)O)C(=O)NCC(=O)N[C@H](CO)C(=O)N[C@@H]([C@H](C)CC(=O)O)C(=O)N[C@@H](CC(=O)c3ccccc3N)C(=O)O[C@@H]2C)cc1` [Compound 50, N-{1-[(E)-3-(4-hexylphenyl)but-2-enoyl]}-L-tryptophyl-D-asparaginyl-L-α-aspartyl-L-threonylglycyl-L-ornithyl-L-α-aspartyl-D-alanyl-L-α-aspartylglycyl-D-seryl-(3R)-3-methyl-L-α-glutamyl-(αS)-α,2-diamino-γ-oxobenzenebutanoic acid (13→4)-lactone], the “Efs201 MIC” value in assay [3] (ATCC 49452) was 0.25 µg/mL. In addition, the “Efs312 MIC” value in [4] was found to be 4 µg/mL. The “Efm14 MIC” value in assay [5] (ATCC 6569) was 1 µg/mL. Moreover, the “Efm384 MIC” value in assay [6] turned out to be 4 µg/mL. Moreover, in assay [7], the “Sa278 MIC” value amounted to 1 µg/mL. Also, the “Sa399 MIC” value in [8] (ATCC 43300) came to 0.5 µg/mL. Further, in the assay with gram positive bacteria, the “as active or more active than daptomycin” value was “as active or more active than daptomycin” and the “more active against bacteria than daptomycin” value is listed as “more effective than daptomycin”. Besides, in assay [2], the “useful” value was “useful against daptomycin resistant strains of bacteria”. Also, the “C. diff MIC90” value with Clostridium difficile is 0.5 µg/mL.

Turning to `CCCCCOc1ccc(-c2ccc(C(=O)N[C@@H](Cc3c[nH]c4ccccc34)C(=O)N[C@H](CC(N)=O)C(=O)N[C@@H](CC(=O)O)C(=O)N[C@@H]3C(=O)NCC(=O)N[C@@H](CCCN)C(=O)N[C@@H](CC(=O)O)C(=O)N[C@H](C)C(=O)N[C@@H](CC(=O)O)C(=O)NCC(=O)N[C@H](CO)C(=O)N[C@@H]([C@H](C)CC(=O)O)C(=O)N[C@@H](CC(=O)c4ccccc4N)C(=O)O[C@@H]3C)cc2)cc1` [Compound 61, N-[4′-(pentyloxy)biphenyl-4-carbonyl]-L-tryptophyl-D-asparaginyl-L-α-aspartyl-L-threonylglycyl-L-ornithyl-L-α-aspartyl-D-alanyl-L-α-aspartylglycyl-D-seryl-(3R)-3-methyl-L-α-glutamyl-(αS)-α,2-diamino-γ-oxobenzenebutanoic acid (13→4)-lactone], in assay [4], the “Efs312 MIC” value came out at 4 µg/mL. For the same molecule, the “Efm14 MIC” value in assay [5] (ATCC 6569) worked out at 0.5 µg/mL. Further, the “Efm384 MIC” value in assay [6] is 2 µg/mL and 1 µg/mL. Further, in the assay on gram positive bacteria, the “as active or more active than daptomycin” value is reported as “as active or more active than daptomycin” and the “more active against bacteria than daptomycin” value is on record as “more effective than daptomycin”. Besides, the “useful” value in [2] is recorded as “useful against daptomycin resistant strains of bacteria”. For the same molecule, in the assay on Clostridium difficile, the “C. diff MIC90” value was determined as 2 µg/mL.

(Values after US20150337013A1, “NOVEL ANTIBACTERIAL AGENTS FOR THE TREATMENT OF GRAM POSITIVE INFECTIONS” (priority 2008, published 2015).)
